Measured values: patent US8901111B2, “Aryl-substituted heterocyclic urea modulators of fatty acid amide hydrolase” (Janssen Pharmaceutica NV, priority 2009, dated 2014)
Counter-ions that a name gives are not always drawn.

What was measured:
[1] = molecular target: T1, rat FAAH (Rattus norvegicus, UniProt P97612); experiment: Assay Method 2: FAAH assay, 3H-anandamide hydrolysis in homogenate of cells transfected with rat FAAH; type: biochemical; conditions: cell homogenate, 3H-AEA 80 nM, 1 h at rt, average of results
T1 construct: expressed in transfected cells; crude homogenate
T1 sequence (P97612 1-579): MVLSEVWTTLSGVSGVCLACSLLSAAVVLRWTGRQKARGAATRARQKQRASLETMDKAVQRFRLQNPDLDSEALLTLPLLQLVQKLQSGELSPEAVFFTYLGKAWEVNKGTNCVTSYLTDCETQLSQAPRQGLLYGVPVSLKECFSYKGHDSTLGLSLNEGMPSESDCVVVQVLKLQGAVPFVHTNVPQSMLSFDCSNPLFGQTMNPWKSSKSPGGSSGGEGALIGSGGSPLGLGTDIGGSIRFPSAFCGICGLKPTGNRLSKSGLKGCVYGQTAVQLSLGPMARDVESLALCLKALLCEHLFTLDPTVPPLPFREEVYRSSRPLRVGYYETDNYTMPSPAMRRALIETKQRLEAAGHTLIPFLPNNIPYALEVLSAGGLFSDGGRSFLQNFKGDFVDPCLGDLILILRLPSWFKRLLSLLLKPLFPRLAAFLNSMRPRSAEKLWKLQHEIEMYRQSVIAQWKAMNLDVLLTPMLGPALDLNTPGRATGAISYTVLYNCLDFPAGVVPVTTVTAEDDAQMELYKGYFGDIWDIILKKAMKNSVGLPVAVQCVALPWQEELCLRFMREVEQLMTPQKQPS
Experimental: A. Transfection of Cells with Rat FAAH
(§1) A 10-cm tissue culture dish with a confluent monolayer of SK-N-MC cells was split 2 days (d) prior to transfection. Using sterile technique, the media was removed and the cells were detached from the dish by the addition of trypsin. One fifth of the cells were then placed onto a new 10-cm dish. Cells were grown in a 37° C. incubator with 5% CO2 in Minimal Essential Media Eagle with 10% Fetal Bovine Serum. After 2 d, cells were approximately 80% confluent. These cells were removed from the dish with trypsin and pelleted in a clinical centrifuge. The pellet was re-suspended in 400 μL complete media and transferred to an electroporation cuvette with a 0.4 cm gap between the electrodes. Supercoiled rat FAAH cDNA (1 μg) was added to the cells and mixed. The voltage for the electroporation was set at 0.25 kV, and the capacitance was set at 960 μF. After electroporation, the cells were diluted into complete media (10 mL) and plated onto four 10-cm dishes. Because of the variability in the efficiency of electroporation, four different concentrations of cells were plated. The ratios used were 1:20, 1:10, and 1:5, with the remainder of the cells being added to the fourth dish. The cells were allowed to recover for 24 h before adding the selection media (complete media with 600 μg/mL G418). After 10 d, dishes were analyzed for surviving colonies of cells. Dishes with well-isolated colonies were used. Cells from individual colonies were isolated and tested.
(§2) T84 frozen cell pellets or transfected SK-N-MC cells (contents of 1×15 cm culture dishes) were homogenized in 50 mL of FAAH assay buffer (125 mM Tris, 1 mM EDTA, 0.2% Glycerol, 0.02% Triton X-100, 0.4 mM Hepes, pH 9). The assay mixture consisted of 50 μL of the cell homogenate, 10 μL of the test compound, and 40 μL of anandamide [1-^3H-ethanolamine] (^3H-AEA, Perkin-Elmer, 10.3 Ci/mmol), which was added last, for a final tracer concentration of 80 nM. The reaction mixture was incubated at rt for 1 h. During the incubation, 96-well Multiscreen filter plates (catalog number MAFCNOB50; Millipore, Bedford, Mass., USA) were loaded with 25 μL of activated charcoal (Multiscreen column loader, catalog number MACL09625, Millipore) and washed once with 100 μL of MeOH. Also during the incubation, 96-well DYNEX MicroLite plates (catalog number NL510410) were loaded with 100 μL of MicroScint40 (catalog number 6013641, Packard Bioscience, Meriden, Conn., USA). After the 1 h incubation, 60 μL of the reaction mixture were transferred to the charcoal plates, which were then assembled on top of the DYNEX plates using Centrifuge Alignment Frames (catalog number MACF09604, Millipore). The unbound labeled ethanolamine was centrifuged through to the bottom plate (5 min at 2000 rpm), which was preloaded with the scintillant, as described above. The plates were sealed and left at rt for 1 h before counting on a Hewlett Packard TopCount.
(§3) Results for compounds tested in these assays are summarized in Table 1, as an average of results obtained. Compounds were tested in the free base or trifluoroacetic acid salt form. Compounds tested in the trifluoroacetic acid salt form are indicated as such by a “*” designation after the example number. Where activity is shown as greater than (>) a particular value, the value is the solubility limit of the compound in the assay medium or the highest concentration tested in the assay.

[2] = molecular target: T2, FAAH (Homo sapiens, UniProt O00519); experiment: Assay Method 1: FAAH assay, 3H-anandamide hydrolysis in homogenate of cells transfected with human FAAH; type: biochemical; set-up: expressed in transfected cells; crude homogenate (T84 cell pellets named as alternative); conditions: cell homogenate, 3H-AEA 80 nM, 1 h at rt, average of results
T2 sequence (O00519 1-579): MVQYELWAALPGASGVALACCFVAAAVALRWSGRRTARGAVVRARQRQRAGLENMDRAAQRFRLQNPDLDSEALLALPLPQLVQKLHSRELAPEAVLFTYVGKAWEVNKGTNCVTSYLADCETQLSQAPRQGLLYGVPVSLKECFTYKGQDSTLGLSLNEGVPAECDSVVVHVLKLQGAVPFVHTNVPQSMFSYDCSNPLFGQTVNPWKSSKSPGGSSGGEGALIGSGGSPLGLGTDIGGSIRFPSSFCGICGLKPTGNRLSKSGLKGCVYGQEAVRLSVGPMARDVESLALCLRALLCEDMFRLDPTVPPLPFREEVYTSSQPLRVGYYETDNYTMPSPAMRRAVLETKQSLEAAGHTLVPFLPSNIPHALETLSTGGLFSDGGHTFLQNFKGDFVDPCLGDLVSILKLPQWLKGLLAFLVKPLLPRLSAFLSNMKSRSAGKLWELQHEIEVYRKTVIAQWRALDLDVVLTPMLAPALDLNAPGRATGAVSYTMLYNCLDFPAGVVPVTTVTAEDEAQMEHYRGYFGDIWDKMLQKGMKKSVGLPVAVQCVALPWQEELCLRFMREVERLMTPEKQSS
Experimental: A. Transfection of Cells with Human FAAH
as §1, with “Supercoiled human” for “Supercoiled rat”, “[…]” for “960 μF.”
as §2, §3

| IC50 [1] [nM] | IC50 [2] [nM] | Compound |
| --- | --- | --- |
| > 10000 |  | O=C(Nc1cccnc1)N1CC(CCOCc2ccccc2)C1 [Example 69, 3-(2-Benzyloxy-ethyl)-azetidine-1-carboxylic acid pyridin-3-ylamide] |
| 1600 | 1000 | O=C(Nc1cccnc1)N1CC(COc2ccc3ccccc3c2)C1 [Example 20, 3-(Naphthalen-2-yloxymethyl)-azetidine-1-carboxylic acid pyridin-3-ylamide] |
| > 10000 | > 10000 | O=C(Nc1cccnc1)N1CCC(CCOc2ccc(OC(F)(F)F)cc2)C1 (stereo not shown) [Example 60, 3-[2-(4-Trifluoromethoxy-phenoxy)-ethyl]-pyrrolidine-1-carboxylic acid pyridin-3-ylamide] |
| 1700 | 2500 | O=C(Nc1cccnc1)N1CC(COc2ccc3c(c2)CCCC3)C1 [Example 13, 3-(5,6,7,8-Tetrahydro-naphthalen-2-yloxymethyl)-azetidine-1-carboxylic acid pyridin-3-ylamide] |
| 300 | 1400 | O=C(Nc1cccnc1)N1CC(COc2ccc(C(F)(F)F)c(Cl)c2)C1 [Example 10, 3-(3-Chloro-4-trifluoromethyl-phenoxymethyl)-azetidine-1-carboxylic acid pyridin-3-ylamide] |
| 900 | 3000 | O=C(Nc1cccnc1)N1CC(CCOc2cccc(OC(F)(F)F)c2)C1 [Example 31, 3-[2-(3-Trifluoromethoxy-phenoxy)-ethyl]-azetidine-1-carboxylic acid pyridin-3-ylamide] |
| 4 | 5 | O=C(Nc1cnc2cccnn12)N1CC(CCOc2cccc(Oc3ccc(Cl)cc3)c2)C1 [Example 1, 3-{2-[3-(4-Chloro-phenoxy)-phenoxy]-ethyl}-azetidine-1-carboxylic acid imidazo[1,2-b]pyridazin-3-ylamide] |
| > 10000 | > 10000 | O=C(Nc1cccnc1)N1CC(COc2ccc3cccnc3c2)C1 [Example 14, 3-(Quinolin-7-yloxymethyl)-azetidine-1-carboxylic acid pyridin-3-ylamide] |
| 200 | 120 | O=C(Nc1cccnc1)N1CC(COc2cccc(Oc3ccc(Cl)cc3)c2)C1 [Example 26, 3-[3-(4-Chloro-phenoxy)-phenoxymethyl]-azetidine-1-carboxylic acid pyridin-3-ylamide] |
| 54 | 30 | O=C(Nc1cccnc1)N1CC(CCOc2ccc(Cl)c(Cl)c2)C1 [Example 34, 3-[2-(3,4-Dichloro-phenoxy)-ethyl]-azetidine-1-carboxylic acid pyridin-3-ylamide] |
| 340 | 170 | O=C(Nc1cccnc1)N1CC(COc2cccc(Oc3ccccc3)c2)C1 [Example 17, 3-(3-Phenoxy-phenoxymethyl)-azetidine-1-carboxylic acid pyridin-3-ylamide] |
| > 10000 | > 10000 | O=C(Nc1cccnc1)N1CCC(CCOc2cccc(OC(F)(F)F)c2)C1 (stereo not shown) [Example 59, 3-[2-(3-Trifluoromethoxy-phenoxy)-ethyl]-pyrrolidine-1-carboxylic acid pyridin-3-ylamide] |
| > 10000 | > 10000 | O=C(Nc1cccnc1)N1CC(COc2ccc3c(c2)OCO3)C1 [Example 7, 3-(Benzo[1,3]dioxol-5-yloxymethyl)-azetidine-1-carboxylic acid pyridin-3-ylamide] |
| 230 | 50 | O=C(Nc1cccnc1)N1CC(COc2cccc(Oc3ccc(OC(F)(F)F)cc3)c2)C1 [Example 25, 3-[3-(4-Trifluoromethoxy-phenoxy)-phenoxymethyl]-azetidine-1-carboxylic acid pyridin-3-ylamide] |
|  | 936 | O=C(Nc1cnccc1Cl)N1CC(CCOCc2ccccc2)C1 [Example 70, 3-(2-Benzyloxy-ethyl)-azetidine-1-carboxylic acid (4-chloropyridin-3-yl)-amide] |
|  | 1300 | O=C(Nc1cnccc1Cl)N1CCC(CCOc2ccc(OC(F)(F)F)cc2)C1 (stereo not shown) [Example 62, 3-[2-(4-Trifluoromethoxy-phenoxy)-ethyl]-pyrrolidine-1-carboxylic acid (4-chloro-pyridin-3-yl)-amide] |
| 350 | 160 | O=C(Nc1cccnc1)N1CC(CCOc2ccc3ccccc3c2)C1 [Example 35, 3-[2-(Naphthalen-2-yloxy)-ethyl]-azetidine-1-carboxylic acid pyridin-3-ylamide, trifluoroacetate salt] |
|  | > 10000 | O=C(Nc1cccc2nonc12)N1CCC(Cc2ccc3c(c2)OC(F)(F)O3)C1 (stereo not shown) [Example 73, N-2,1,3-Benzoxadiazol-4-yl-3-[(2,2-difluoro-1,3-benzodioxol-5-yl)methyl]pyrrolidine-1-carboxamide] |
|  | > 10000 | O=C(Nc1cccnc1)N1CC(CCOc2ccc(OC(F)(F)F)cc2)C1 [Example 30, 3-[2-(4-Trifluoromethoxy-phenoxy)-ethyl]-azetidine-1-carboxylic acid pyridin-3-ylamide] |
|  | 6000 | O=C(Nc1cccnc1)N1CCC(CCOc2ccc(Cl)c(Cl)c2)C1 (stereo not shown) [Example 53, 3-[2-(3,4-Dichloro-phenoxy)-ethyl]-pyrrolidine-1-carboxylic acid pyridin-3-ylamide] |
